Measured values as given in patent US6531573B1, “Antifungal and antibacterial peptides” (Trustees of Boston University, priority 1997, dated 2003).

Key:
Clostripain = target: T1, Clostripain (Hathewaya histolytica, UniProt P09870); test: Clostripain inhibition; type: biochemical; details: endopeptidase of Clostridium histolyticum
T1 construct: purchased Sigma Chemical Corp., St. Louis, Mo
Description: Clostripain from Clostridium histolyticum (Sigma Chemical Corp., St. Louis, Mo.) is dissolved in deionized water to a concentration of 1 mg/ml (300 units/mg) and activated with the addition of 10 mmol/L DTT. To measure its hydrolytic activity, clostripain ( 6 units) is added to […] Hepes buffer, pH 7.5, containing 80 μmol/L BAPNA (benzoyl-arginine-p-nitroanilide), together with 5.6 μmol/L of histatin peptide inhibitor. As controls, assays are performed in the absence of any histatin peptide inhibitor. The activity is monitored continuously at 405 nm using a Molecular Devices Vmax microtitre plate reader. The activities are determined from the maximum rates of substrate hydrolysis. Assays are done in duplicate, and the means normalized to the controls.

P. gingivalis 381 = details: cited from earlier work

T1 sequence (P09870 191-526): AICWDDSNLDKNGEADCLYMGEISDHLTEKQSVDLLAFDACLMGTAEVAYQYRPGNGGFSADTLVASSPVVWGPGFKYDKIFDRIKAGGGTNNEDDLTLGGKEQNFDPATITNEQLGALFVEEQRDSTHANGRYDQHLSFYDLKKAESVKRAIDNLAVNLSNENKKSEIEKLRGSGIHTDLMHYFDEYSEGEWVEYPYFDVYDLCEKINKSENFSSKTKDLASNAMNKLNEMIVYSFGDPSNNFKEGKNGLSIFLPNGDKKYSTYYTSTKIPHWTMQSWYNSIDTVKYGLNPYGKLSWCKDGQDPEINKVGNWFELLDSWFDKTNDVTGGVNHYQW
T1 sequence (P09870 51-181): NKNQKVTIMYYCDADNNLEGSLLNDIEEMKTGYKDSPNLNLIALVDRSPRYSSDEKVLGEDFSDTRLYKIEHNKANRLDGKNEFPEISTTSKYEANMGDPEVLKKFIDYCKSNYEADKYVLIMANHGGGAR

## histatin 5
Clostripain
  inhibition of clostripain (in words): can be inhibited
P. gingivalis 381
  concentration giving complete hemagglutination inhibition: 5 nmol/mL
  inhibition of hemagglutination (in words): inhibit hemagglutination
